Tests used:
[1] = xn = mol fraction of the nth substance listed; conditions: 101 kPa, Liquid
[2] = 101 kPa, Liquid

CN1CCCC1=O [N-methylpyrrolidone] + c1ccccc1
[1]
Conditions	mass density, 303.15 K [kg/m3]	mass density, 313.15 K [kg/m3]	mass density, 323.15 K [kg/m3]	mass density, 333.15 K [kg/m3]	mass density, 343.15 K [kg/m3]	viscosity, 303.15 K [mPa·s]	viscosity, 313.15 K [mPa·s]	viscosity, 323.15 K [mPa·s]	viscosity, 333.15 K [mPa·s]	viscosity, 343.15 K [mPa·s]
x2 = 0	1023.47	1014.55	1005.66	996.71	987.75	1.554	1.332	1.16	1.022	0.908
x2 = 0.1239	1008.67	999.64	990.6	981.51	972.41	1.357	1.163	1.015	0.895	0.797
x2 = 0.2409	993.24	984.1	974.95	965.76	956.53	1.222	1.049	0.915	0.807	0.712
x2 = 0.3523	978.06	968.78	959.51	950.17	940.78	1.102	0.952	0.834	0.735	0.656
x2 = 0.4584	962.87	953.43	943.96	934.42	924.85	0.991	0.858	0.753	0.665	0.593
x2 = 0.5594	947.6	937.99	928.33	918.6	908.82	0.899	0.779	0.684	0.604	0.539
x2 = 0.6557	931.99	922.17	912.31	902.36	892.35	0.809	0.703	0.62	0.548	0.491
x2 = 0.7476	916.33	906.29	896.21	886.02	875.8	0.729	0.636	0.56	0.498	0.447
x2 = 0.8354	900.43	890.16	879.84	869.42	858.93	0.655	0.573	0.505	0.451	0.405
x2 = 0.9195	884.33	873.83	863.26	852.58	841.81	0.585	0.519	0.458	0.41	0.369

c1ccccc1 [benzene]
[2]
Conditions	mass density [kg/m3]	viscosity [mPa·s]
303.15 K	868.21	0.561
313.15 K	857.46	0.493
323.15 K	846.65	0.436
333.15 K	835.72	0.388
343.15 K	824.87	0.345

c1ccccc1 [benzene] + CN1CCCC1=O
[1], x1 = 1
Conditions	mass density [kg/m3]	viscosity [mPa·s]
303.15 K	868.21	0.561
313.15 K	857.46	0.493
323.15 K	846.65	0.436
333.15 K	835.72	0.388
343.15 K	824.87	0.345

C1CCCCC1 [cyclohexane] + CN1CCCC1=O
[1], x1 = 1
Conditions	mass density [kg/m3]	viscosity [mPa·s]
303.15 K	769.1	0.821
313.15 K	759.6	0.696
323.15 K	749.98	0.598
333.15 K	740.23	0.52

Cc1ccccc1 [toluene] + CN1CCCC1=O
[1], x1 = 1
Conditions	mass density [kg/m3]	viscosity [mPa·s]
303.15 K	858.32	0.525
313.15 K	848.92	0.47
323.15 K	839.45	0.423
333.15 K	829.93	0.385
343.15 K	820.3	0.35
353.15 K	810.54	0.323

From the NIST ThermoML archive (doi:10.1016/j.jct.2006.06.005)
